According to US6914045B2, “Glycopeptide antibiotics” (Wyeth Holdings Corporation, priority 2001, dated 2005):
Values after ≈ are worked out from the molar mass of the structure shown.

Legend:
Test in all cases: in vitro antibacterial evaluation, MIC by broth dilution
Type in all cases: cell-based
Staphylococcus sp. = conditions: broth dilution, 18 hours at 35° C.
In short: (§1)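 Read-out: the lowest concentration at which the test strain fails to grow. Serial dilutions (64-0.06 μg/mL) in Muller-Hinton II […], 5×10^5 CFU/mL inoculum, NCCLS M7-A2 procedure.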

Streptococcus sp. = conditions: broth dilution, 18 hours at 35° C.
In short: as §1

Enterococcus sp. = conditions: broth dilution, 18 hours at 35° C.
In short: as §1

Escherichia coli = conditions: 18 hours at 35° C.

With `CC(c1ccccc1)C1NC(=O)CNC(=O)C(CO)NC(=O)C(C(O)C2CNC(=N)N2C2OC(CO)C(O)C(O)C2O)NC(=O)C(C(O)C2CNC(=N)N2)NC(=O)C(Cc2ccc(OC3OC(CO)C(OC4OC(COCC=Cc5ccccc5)C(O)C(O)C4O)C(O)C3O)cc2)NC1=O` (stereo not shown) [Example 242] as the molecule, how does the “MIC Coagulase Negative Staphylococcus (GC 4547)” value (Staphylococcus sp.) read?
Its value is 8 µg/mL (≈ 5.67 µM).

What about the “MIC Coagulase Negative Staphylococcus (GC 4548)” value (Staphylococcus sp.) of the same molecule?
Its value is 4 µg/mL (≈ 2.83 µM).

What about the “MIC Coagulase Negative Staphylococcus (GC 4549)” value (Staphylococcus sp.) of the same molecule?
The value was 4 µg/mL (≈ 2.83 µM).

And the “MIC Coagulase Negative Staphylococcus (GC 4551)” value (Staphylococcus sp.)?
Its value is 16 µg/mL (≈ 11.3 µM).

What about the “MIC Coagulase Negative Staphylococcus (GC 6257)” value (Staphylococcus sp.) of the same molecule?
Its value is 2 µg/mL (≈ 1.42 µM).

What about the “MIC Staphylococcus aureus (ATCC 29213)” value (Staphylococcus sp.) of the same molecule?
The value was 8 µg/mL (≈ 5.67 µM).

What about the “MIC Staphylococcus aureus (GC 1131)” value (Staphylococcus sp.) of the same molecule?
Its value is 8 µg/mL (≈ 5.67 µM).

And the “MIC Staphylococcus aureus (GC 3051)” value (Staphylococcus sp.)?
Its value is 8 µg/mL (≈ 5.67 µM).

And the “MIC Staphylococcus aureus (GC 3053)” value (Staphylococcus sp.)?
The value was 8 µg/mL (≈ 5.67 µM).

What about the “MIC Staphylococcus aureus (GC 4541)” value (Staphylococcus sp.) of the same molecule?
The value was 4 µg/mL (≈ 2.83 µM).

What about the “MIC Staphylococcus aureus (GC 4542)” value (Staphylococcus sp.) of the same molecule?
The value was 4 µg/mL (≈ 2.83 µM).

And the “MIC Staphylococcus aureus (GC 4544)” value (Staphylococcus sp.)?
The value was 8 µg/mL (≈ 5.67 µM).

And the “MIC Staphylococcus aureus (GC 4545)” value (Staphylococcus sp.)?
The value was 4 µg/mL (≈ 2.83 µM).

And the “MIC Staphylococcus aureus-SMITH (GC 4543)” value (Staphylococcus sp.)?
The value was 8 µg/mL (≈ 5.67 µM).

And the “MIC Staphylococcus haemolyticus (GC 4546)” value (Staphylococcus sp.)?
The value was 4 µg/mL (≈ 2.83 µM).

What about the “MIC Staphylococcus aureus (ATCC 29213)” value (Staphylococcus sp.; strain ATCC 29213) of the same molecule?
The value was 8 µg/mL (≈ 5.67 µM).

And the “MIC Staphylococcus aureus (GC 1131)” value (Staphylococcus sp.; strain GC 1131)?
Its value is 8 µg/mL (≈ 5.67 µM).

What about the “MIC Staphylococcus aureus (GC 3051)” value (Staphylococcus sp.; strain GC 3051) of the same molecule?
The value was 8 µg/mL (≈ 5.67 µM).

And the “MIC Staphylococcus aureus (GC 3053)” value (Staphylococcus sp.; strain GC 3053)?
The value was 8 µg/mL (≈ 5.67 µM).

What about the “MIC Staphylococcus aureus (GC 4541)” value (Staphylococcus sp.; strain GC 4541) of the same molecule?
Its value is 4 µg/mL (≈ 2.83 µM).

And the “MIC Staphylococcus aureus (GC 4542)” value (Staphylococcus sp.; strain GC 4542)?
Its value is 4 µg/mL (≈ 2.83 µM).

What about the “MIC Staphylococcus aureus-SMITH (GC 4543)” value (Staphylococcus sp.; strain GC 4543) of the same molecule?
The value was 8 µg/mL (≈ 5.67 µM).

And the “MIC Staphylococcus aureus (GC 4544)” value (Staphylococcus sp.; strain GC 4544)?
The value was 8 µg/mL (≈ 5.67 µM).

And the “MIC Staphylococcus aureus (GC 4545)” value (Staphylococcus sp.; strain GC 4545)?
The value was 4 µg/mL (≈ 2.83 µM).

What about the “MIC Staphylococcus haemolyticus (GC 4546)” value (Staphylococcus sp.; strain GC 4546) of the same molecule?
The value was 4 µg/mL (≈ 2.83 µM).

And the “MIC Coagulase Negative Staphylococcus (GC 4547)” value (Staphylococcus sp.; strain GC 4547)?
Its value is 8 µg/mL (≈ 5.67 µM).

What about the “MIC Coagulase Negative Staphylococcus (GC 4548)” value (Staphylococcus sp.; strain GC 4548) of the same molecule?
The value was 4 µg/mL (≈ 2.83 µM).

What about the “MIC Coagulase Negative Staphylococcus (GC 4549)” value (Staphylococcus sp.; strain GC 4549) of the same molecule?
Its value is 4 µg/mL (≈ 2.83 µM).

What about the “MIC Coagulase Negative Staphylococcus (GC 4551)” value (Staphylococcus sp.; strain GC 4551) of the same molecule?
The value was 16 µg/mL (≈ 11.3 µM).

What about the “MIC Coagulase Negative Staphylococcus (GC 6257)” value (Staphylococcus sp.; strain GC 6257) of the same molecule?
The value was 2 µg/mL (≈ 1.42 µM).

What about the “MIC Streptococcus agalactiae (GC 4564)” value (Streptococcus sp.) of the same molecule?
The value was 2 µg/mL (≈ 1.42 µM).

What about the “MIC Streptococcus pneumoniae (ATCC 6301)” value (Streptococcus sp.) of the same molecule?
The value was 1 µg/mL (≈ 0.708 µM).

And the “MIC Streptococcus pneumoniae (GC 1894)” value (Streptococcus sp.)?
The value was 0.5 µg/mL (≈ 0.354 µM).

What about the “MIC Streptococcus pneumoniae (GC 4565)” value (Streptococcus sp.) of the same molecule?
Its value is 0.5 µg/mL (≈ 0.354 µM).

And the “MIC Streptococcus pyogenes (GC 4563)” value (Streptococcus sp.)?
The value was 2 µg/mL (≈ 1.42 µM).

What about the “MIC Streptococcus pneumoniae (ATCC 6301)” value (Streptococcus sp.; inoculum 5×10^5 CFU/mL, strain ATCC 6301) of the same molecule?
The value was 1 µg/mL (≈ 0.708 µM).

And the “MIC Streptococcus pneumoniae (GC 1894)” value (Streptococcus sp.; inoculum 5×10^5 CFU/mL, strain GC 1894)?
The value was 0.5 µg/mL (≈ 0.354 µM).

What about the “MIC Streptococcus pyogenes (GC 4563)” value (Streptococcus sp.; inoculum 5×10^5 CFU/mL, strain GC 4563) of the same molecule?
The value was 2 µg/mL (≈ 1.42 µM).

What about the “MIC Streptococcus agalactiae (GC 4564)” value (Streptococcus sp.; inoculum 5×10^5 CFU/mL, strain GC 4564) of the same molecule?
Its value is 2 µg/mL (≈ 1.42 µM).

What about the “MIC Streptococcus pneumoniae (GC 4565)” value (Streptococcus sp.; inoculum 5×10^5 CFU/mL, strain GC 4565) of the same molecule?
The value was 0.5 µg/mL (≈ 0.354 µM).

And the “MIC Enterococcus avium (GC 4558)” value (Enterococcus sp.)?
The value was 16 µg/mL (≈ 11.3 µM).

And the “MIC Enterococcus faecalis (ATCC 29212)” value (Enterococcus sp.)?
The value was 16 µg/mL (≈ 11.3 µM).

And the “MIC Enterococcus faecalis (GC 2242)” value (Enterococcus sp.)?
The value was 16 µg/mL (≈ 11.3 µM).

And the “MIC Enterococcus faecalis (GC 2691)” value (Enterococcus sp.)?
Its value is 16 µg/mL (≈ 11.3 µM).

What about the “MIC Enterococcus faecalis (GC 3059)” value (Enterococcus sp.) of the same molecule?
Its value is 16 µg/mL (≈ 11.3 µM).

What about the “MIC Enterococcus faecalis (GC 4552)” value (Enterococcus sp.) of the same molecule?
Its value is 16 µg/mL (≈ 11.3 µM).

What about the “MIC Enterococcus faecalis (GC 4553)” value (Enterococcus sp.) of the same molecule?
Its value is 16 µg/mL (≈ 11.3 µM).

And the “MIC Enterococcus faecalis (GC 4554)” value (Enterococcus sp.)?
The value was 16 µg/mL (≈ 11.3 µM).

What about the “MIC Enterococcus faecalis (GC 6189)” value (Enterococcus sp.) of the same molecule?
The value was 16 µg/mL (≈ 11.3 µM).

What about the “MIC Enterococcus faecium (GC 2243)” value (Enterococcus sp.) of the same molecule?
Its value is 16 µg/mL (≈ 11.3 µM).

And the “MIC Enterococcus faecium (GC 4556)” value (Enterococcus sp.)?
The value was 16 µg/mL (≈ 11.3 µM).

And the “MIC Enterococcus faecium (GC 4557)” value (Enterococcus sp.)?
Its value is 8 µg/mL (≈ 5.67 µM).

And the “MIC Enterococcus faecalis (ATCC 29212)” value (Enterococcus sp.; strain ATCC 29212)?
The value was 16 µg/mL (≈ 11.3 µM).

And the “MIC Enterococcus faecium (GC 2243)” value (Enterococcus sp.; strain GC 2243)?
Its value is 16 µg/mL (≈ 11.3 µM).

What about the “MIC Enterococcus faecalis (GC 4552)” value (Enterococcus sp.; strain GC 4552) of the same molecule?
Its value is 16 µg/mL (≈ 11.3 µM).

And the “MIC Enterococcus faecalis (GC 4553)” value (Enterococcus sp.; strain GC 4553)?
Its value is 16 µg/mL (≈ 11.3 µM).

What about the “MIC Enterococcus faecalis (GC 4554)” value (Enterococcus sp.; strain GC 4554) of the same molecule?
The value was 16 µg/mL (≈ 11.3 µM).

And the “MIC Enterococcus faecium (GC 4556)” value (Enterococcus sp.; strain GC 4556)?
Its value is 16 µg/mL (≈ 11.3 µM).

What about the “MIC Enterococcus faecium (GC 4557)” value (Enterococcus sp.; strain GC 4557) of the same molecule?
The value was 8 µg/mL (≈ 5.67 µM).

What about the “MIC Enterococcus avium (GC 4558)” value (Enterococcus sp.; strain GC 4558) of the same molecule?
Its value is 16 µg/mL (≈ 11.3 µM).

And the “MIC Enterococcus faecalis (GC 6189)” value (Enterococcus sp.; strain GC 6189)?
The value was 16 µg/mL (≈ 11.3 µM).

And the “MIC Enterococcus faecalis (GC 2242)” value (Enterococcus sp.; inoculum 5×10^5 CFU/mL, strain GC 2242)?
The value was 16 µg/mL (≈ 11.3 µM).

And the “MIC Enterococcus faecalis (GC 2691)” value (Enterococcus sp.; inoculum 5×10^5 CFU/mL, strain GC 2691)?
The value was 16 µg/mL (≈ 11.3 µM).

What about the “MIC Enterococcus faecalis (GC 3059)” value (Enterococcus sp.; inoculum 5×10^5 CFU/mL, strain GC 3059) of the same molecule?
Its value is 16 µg/mL (≈ 11.3 µM).

What about the “MIC Escherichia coli (ATCC 25922)” value (Escherichia coli) of the same molecule?
Its value is over 64 µg/mL.

And the “MIC Escherichia coli (GC 4559)” value (Escherichia coli)?
The value was over 64 µg/mL.

What about the “MIC Escherichia coli (GC 4560)” value (Escherichia coli) of the same molecule?
The value was 2 µg/mL (≈ 1.42 µM).
